Tests used:
[1] = test system: HEI-193 human schwannoma cells; assay: Metabolic activity (MTT) assay, HEI-193; assay type: cell-based; details: for HEI-193 cell metabolic activity: 72 h; for metabolic activity of HEI-193 cells: preliminary testing, clinically reasonable concentrations
Experimental: (§1) HEI-193 cells are derived from a patient with sporadic bilateral vestibular schwannomas and a history of meningioma; these cells express a splice variant of the merlin protein (encoded by the NF2 gene), but neither typical isoform^52. HEI-193 cells were cultured in DMEM/F12-containing medium with 10% fetal bovine serum and 1% penicillin and streptomycin mix as described above. Immortalized NF2-null and NF2-expressing arachnoid AC-CRISPR cell lines derived from primary human autopsy specimens were obtained via generous gift from Dr. Vijaya Ramesh at Massachusetts General Hospital^40. NF2-null and NF2-expressing arachnoid cells were cultured in DMEM with 15% fetal bovine serum and 1% penicillin and streptomycin mix. All cell lines were maintained in an incubator at 37 degrees Celsius with 5% carbon dioxide and treated with drugs 24-36 hours after seeding at between 15,000-25,000 cells per well in 24-well plates. Phase contrast photos of healthy and drug-treated cultures were taken at 10× magnification on an IncuCyte S3 instrument (Essen Bio).
Cultures were incubated with drug-containing medium or 0.1% DMSO vehicle for 72 hours and then processed for downstream applications.
The metabolic activity of primary VS and HEI-193 cells was assessed using the colorimetric 3-(4,5-dimethylthiazol-2-yl)-2,5-diphenyltetrazolium bromide (MTT) assay (Life Technologies). After 72-hour incubation of cells in a 24-well plate with medium containing drug or vehicle, culture medium was replaced with 362 μL of colorless DMEM and 38 μL of 12 mM MTT in 3-6 random wells. Cells were incubated for an additional 4 hours. The resulting formazan crystals were dissolved in 380 μL of a solution of 100 mg/mL sodium dodecyl sulfate in 0.01 M HCl and incubated for another 4 hours. Optical density (OD) at 570 nm of each well was detected using a spectrophotometer. The average OD value of cells exposed to vehicle (0.1% DMSO) was set to 100% and used to normalize OD values of cells treated with drugs; metabolic activity was then reported as percent change. Statistical testing was performed on raw OD values (see Statistical Methods).

[2] = test system: primary human VS cells; assay: Metabolic activity (MTT) assay, primary VS cells; assay type: cell-based
Experimental: Written informed consent was obtained from all subjects prior to inclusion in this study and all procedures were conducted in accordance with the Helsinki Declaration of 1975. Detailed methods for human surgical specimen collection, processing, and culture are previously published^38. VS specimens were harvested from patients undergoing surgical tumor resection, and GAN specimens from healthy patients undergoing benign parotidectomy or neck dissection surgery, during which the GAN is routinely sacrificed. Patients who had received radiation therapy prior to surgery were excluded.
Briefly, after surgical resection, VS or GAN tissue was immediately placed in saline solution and transported to the laboratory on ice. Specimens were rinsed with Hank's Balanced Salt Solution (HBSS, ThermoFisher Scientific), dissected to remove burned tissue and blood vessels, and separated for RNA preservation (RNALater, ThermoFisher Scientific) or primary cell culture. […]
(§2) The metabolic activity of primary VS and HEI-193 cells was assessed using the colorimetric 3-(4,5-dimethylthiazol-2-yl)-2,5-diphenyltetrazolium bromide (MTT) assay (Life Technologies). […] Optical density (OD) at 570 nm of each well was detected using a spectrophotometer. […]

[3] = test system: AC-CRISPR NF2(−/−) and AC-CRISPR NF2(+/+) human arachnoid cells; assay: Metabolic viability, arachnoid cells versus schwannoma cells; assay type: cell-based
Experimental: as §1, §2

[4] = test system: primary human Schwann cells; assay: Metabolic activity (MTT) assay, primary Schwann cells; assay type: cell-based; details: p=0.23
[5] = test system: HEI-193 cells; assay: Proliferation assay (BrdU incorporation), HEI-193; assay type: cell-based, human; details: 35 μM, 72 h; p=0.0007
Experimental: 5′bromo-2′-deoxyuridine (BrdU) was added to label proliferating cells in culture 2 hours before fixation in 4% formalin (paraformaldehyde). Cell membranes were permeabilized with 10 minutes of incubation in 1% Triton X-100 and nuclear membranes with 20 minutes in 2N hydrochloric acid (HCl). Cells were blocked in 5% normal horse serum (NHS) and 1% Triton X-100 and incubated with a primary antibody against BrdU (# OBT0030G, AbD Serotec) overnight, followed by incubation with fluorescent anti-rat immunoglobulin G (AlexaFluor, Life Technologies).

[6] = test system: HEI-193 cells; assay: Cell confluence and phase contrast imaging (IncuCyte), HEI-193; assay type: cell-based, human
Experimental: as §1, with “All cell lines were maintained in an incubator at 37 degrees Celsius with 5% carbon dioxide and treated with drugs 24-36 hours after seeding at between 15,000-25,000 cells per well in 24-well plates. Phase contrast photos of healthy and drug-treated cultures were taken at 10× magnification on an IncuCyte S3 instrument (Essen Bio).” left out
Cytotoxicity and cell confluence were measured using live-cell, time-lapse phase contrast and fluorescence imaging acquired at 10× by an IncuCyte S3 instrument (Essen Bioscience). Cytotoxicity was measured by incorporation of IncuCyte Cytotox Reagent (Essen Bioscience), applied according to manufacturer's instructions; the reagent fluoresces when it binds DNA after compromise of membrane integrity. […] Phase object confluence was measured using time-lapse phase contrast imaging acquired at 10× by the same instrument, analyzing 9 images per well every 2 hours for 72 hours, and is reported as percent confluence per square millimeter.

[7] = test system: HEI-193 cells; assay: Caspase 3/7 activation by live-cell imaging, HEI-193; assay type: cell-based, human; details: 70 μM and 35 μM, over 100 h, versus vehicle
[8] = test system: HEI-193 cells; assay: Phalloidin staining of f-actin, HEI-193; assay type: cell-based, human; details: 35 μM, 72 hours
[9] = test system: primary human VS cells; assay: Cytotoxicity assay (IncuCyte Cytotox Reagent), primary VS cells; assay type: cell-based; details: 35 μM, 72 hours, live cell fluorescence microscopy
Experimental: Cytotoxicity and cell confluence were measured using live-cell, time-lapse phase contrast and fluorescence imaging acquired at 10× by an IncuCyte S3 instrument (Essen Bioscience). Cytotoxicity was measured by incorporation of IncuCyte Cytotox Reagent (Essen Bioscience), applied according to manufacturer's instructions; the reagent fluoresces when it binds DNA after compromise of membrane integrity. Nine images were acquired per well every 2 hours for 72 hours, and cytotoxicity at each time point is reported as number of fluorescent objects per well, after thresholding to avoid the inclusion of small cellular debris. Phase object confluence was measured using time-lapse phase contrast imaging acquired at 10× by the same instrument, analyzing 9 images per well every 2 hours for 72 hours, and is reported as percent confluence per square millimeter.

[10] = test system: HEI-193 cells; assay: ELISA for progesterone in conditioned cell culture medium; assay type: cell-based, human; details: 35 μM versus 0.1% DMSO vehicle; p=0.08
Experimental: Cell-conditioned medium was collected from mifepristone-treated and untreated HEI-193 cells after 72-hour incubation with the drug. Enzyme-linked immunosorbent assay (ELISA) was performed on each sample in triplicate to assess the quantity of progesterone in cell-conditioned medium, according to the manufacturer's protocol (Enzo Life Science, # ADI-900-011). Data were analyzed using GraphPad Prism 7 software licensed through Harvard Medical School.

[11] = test system: HEI-193 cells; assay: Flow cytometry, annexin V/propidium iodide staining; assay type: cell-based, human; details: 35 μM, 72 h, versus vehicle
Experimental: Apoptotic cell death was assessed using an Annexin V/propidium iodide (PI) staining kit (Miltenyi Biotec). […] Adherent cells were collected by trypsinization, and non-adherent (floating) cells were collected from culture medium. Cells were centrifuged, washed in PBS, and incubated in 1× annexin binding buffer, annexin V-fluorescein isothiocyanate (FITC), and propidium iodide (PI) according to the manufacturer's recommendations. Stained cells were immediately analyzed using a Cytomics FC500 flow cytometer. Data were analyzed using CXP Analysis software (version 2.2, Coulter).

[12] = test system: HEI-193 cells; assay: Cell cycle analysis; assay type: cell-based, human; details: 72 h treatment
Experimental: Harvested HEI-193 cells were washed in PBS and fixed in cold 70% ethanol at −20° C. for 18-72 h. Before staining with propidium iodide (PI), cells were centrifuged and washed again in cold PBS. 2×10^6 or fewer cells were incubated with 500 μl staining solution [0.1% Triton X-100 (Sigma), 2 mg/ml RNase A (Qiagen), and 1 μg/ml PI (Miltenyi Biotec) in PBS] for 15 minutes at 37° C. In order to exclude DNAse activity, RNase A was boiled for 5 minutes and cooled down before its addition to staining solution. Cells were analyzed on a Cytomics FC500 flow cytometer using CXP Analysis software (version 2.2, Coulter).

[13] = test system: HEI-193 cells; assay: TUNEL assay, HEI-193; assay type: cell-based, human; details: 72 h, versus vehicle
[14] = in vivo; cited from earlier work
[15] = test system: unresectable meningioma; details: cited from earlier work
[16] = test system: primary human VS cells; assay: Proliferation assay (BrdU incorporation), primary VS cells
[17] = test system: primary VS cells; assay: Cell death (TUNEL) assay, primary VS cells; assay type: cell-based, human; details: 25 μM, 72 h

For Nc1ncnc2c1ncn2[C@@H]1O[C@H](COP(=O)(O)O)[C@@H](O)[C@H]1O [ADENOSINE MONOPHOSPHATE, ADENOSINE, adenosine monophosphate], the “HEI-193 cell metabolic activity” value ([1]; 5, 10, and 15 μM) was “no significant effect” and the “metabolic activity of HEI-193 cells” value [1] was “no effect”.
For C[C@H]1C[C@@H]2[C@H]([C@@H](O)C[C@@]3(C)[C@H]2CC[C@]3(O)C(=O)CO)[C@@]2(C)C=CC(=O)C=C12 [methylprednisolone], the “HEI-193 cell metabolic activity” value ([1]; 27 μM) was “no significant effect” and the “metabolic activity of HEI-193 cells” value [1] was “no effect”.
In the case of CC#C[C@]1(O)CC[C@H]2[C@@H]3CCC4=CC(=O)CCC4=C3[C@@H](c3ccc(N(C)C)cc3)C[C@@]21C [mifepristone, 11β-(4-dimethylaminophenyl)-17β-hydroxy-17α-(1-propynyl)-estra-4,9-dien-3-one], the “metabolic viability of HEI-193 cells” value ([1]; MTT, 72 h in culture, vehicle vs 35 μM p=0.006) is reported as “decreases with increasing concentration”, the “metabolic activity of primary VS cells” value ([2]; MTT, ten tumors, vehicle vs 35 μM p=0.002) is reported as “declines with increasing concentrations” and the “metabolic viability, schwannoma cells compared with arachnoid cells” value [3] is reported as “reduces the metabolic viability of schwannoma cells more significantly”. For the same compound, the “metabolic viability of primary human Schwann cells” value [4] was “does not adversely affect”, the “percentage of BrdU+ HEI-193 cells” value [5] was “significantly declines” and the phase object confluence ([6]; 35 μM, 72 hours) was “remains constant”. For the same compound, the “cell shape under treatment” value ([6]; phase contrast, FIG. 2C) was “long, thin, spindle-like shape”, the “caspase 3/7 activity” value [7] was “slight but not significant elevation” and the “f-actin morphology (phalloidin staining)” value [8] was “crumpled f-actin morphology”. For the same compound, the “cytotoxicity of VS cells” value [9] was “significant increase”, the “progesterone in culture medium” value [10] was “increase in progesterone in culture medium” and the “early apoptotic cells (annexin V/propidium iodide)” value [11] was “slight but not significant increase”. For the same compound, the “phase of cell cycle” value [12] was “no significant differences”, the “number of TUNEL positive cells” value [13] was “no statistically significant difference” and the blood-brain barrier crossing [14] was “able to cross the blood-brain barrier”. The outcome versus placebo ([15]; double-blind, randomized Phase III trial of 164 patients) was “no difference between treatment and placebo”, the “patients with minor responses resulting in clinical benefit” value ([15]; long-term clinical trial, unresectable meningioma) was “eight of 28” and the “BrdU incorporation in primary VS cells” value ([16]; 35 μM, p=0.0002) was “significant decline”.
With C[C@]12C=CC(=O)C=C1CC[C@@H]1[C@@H]2[C@@H](O)C[C@@]2(C)[C@H]1CC[C@]2(O)C(=O)CO [prednisolone] the “HEI-193 cell metabolic activity” value ([1]; 25 μM) was “no significant effect”, the “metabolic activity of primary VS cells” value ([2]; 25 μM, 72 h) was “modest effect” and the “elevation in cell death among primary VS cells versus vehicle” value [17] was 15.85%. For the same compound, the “proliferation of primary VS cells” value ([16]; 25 μM, 72 h) was “no effect”.
With O=C(O)[C@@H](S)[C@@H](S)C(=O)O [succimer] the “HEI-193 cell metabolic activity” value ([1]; 25, 50, and 100 μM) was “no significant effect” and the “metabolic activity of HEI-193 cells” value [1] was “no effect”.
With gold sodium thiomalate the “HEI-193 cell metabolic activity” value ([1]; 25, 50, 100, and 300 μM) was “significant effect on HEI-193 cell metabolic activity, but only at clinically unreasonable concentrations” and the “metabolic activity of HEI-193 cells” value [1] was “no effect”.

From patent US20200093835A1, “METHODS OF TREATING VESTIBULAR SCHWANNOMA” (Massachusetts Eye and Ear Infirmary, priority 2017, published 2020)
